22 molecules from patent US20240067631A1, “PYRAZOLE DERIVATIVES USEFUL AS NAMPT MODULATORS” (Cytokinetics, Inc., priority 2020, published 2024) can be followed below.

In this assay the target is human NAMPT (Homo sapiens (Human), UniProt P43490). The assay can be described thus: Human recombinant enzyme assay (NMN fluorescence biochemical assay). As to conditions: 6 nM human NAMPT, 60 min; for AC1.4 Human: concentration of compound that generates 40% higher activity over basal; for pEC50: concentration that gives half-maximal activation. A digest of the protocol:
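Recombinant human NAMPT (6 nM) with 2.5 mM ATP, […] PRPP and […] nicotinamide in HEPES pH 7.2 with DTT, CHAPS, NaCl, MgCl2; 60 min at ambient temperature. NMN derivatised with acetophenone/KOH/formic acid, fluorescence read at 355/460 nm. AC1.4 (40% above basal) and EC50 reported.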

pEC50: −log10 of the molar value.

human NAMPT, sequence (P43490 whole entry): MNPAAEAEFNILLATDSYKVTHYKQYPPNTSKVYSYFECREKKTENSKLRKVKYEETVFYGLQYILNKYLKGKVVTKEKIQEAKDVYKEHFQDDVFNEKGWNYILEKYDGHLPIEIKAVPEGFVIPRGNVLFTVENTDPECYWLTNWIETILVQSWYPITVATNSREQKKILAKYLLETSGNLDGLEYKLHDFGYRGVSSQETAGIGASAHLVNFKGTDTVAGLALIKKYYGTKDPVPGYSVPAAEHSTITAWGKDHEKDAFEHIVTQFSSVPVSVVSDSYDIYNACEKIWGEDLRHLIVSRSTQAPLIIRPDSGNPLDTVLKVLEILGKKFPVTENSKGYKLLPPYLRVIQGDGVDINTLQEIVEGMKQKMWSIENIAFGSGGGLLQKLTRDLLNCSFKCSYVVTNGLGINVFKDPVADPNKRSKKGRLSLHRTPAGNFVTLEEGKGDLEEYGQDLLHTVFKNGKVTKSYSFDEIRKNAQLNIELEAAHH

Turning to `Cc1nc(C(=O)N[C@H](C)c2cncc(F)c2)nc(NCCc2cn[nH]c2)c1C` [Compound 109, (R)-4-((2-(1H-pyrazol-4-yl)ethyl)amino)-N-(1-(5-fluoropyridin-3-yl)ethyl)-5,6-dimethylpyrimidine-2-carboxamide], the “AC1.4 Human” value was 1.933 µM and the pEC50 was 4.95.

In the case of `Cc1nc(C(=O)N2CCC(O)(c3ccccc3)CC2)nc(NCCc2cn[nH]c2)c1C` [Compound 34, (4-((2-(1H-pyrazol-4-yl)ethyl)amino)-5,6-dimethylpyrimidin-2-yl)(4-hydroxy-4-phenylpiperidin-1-yl)methanone], the “AC1.4 Human” value came to 2.839 µM and the pEC50 is 4.75.

For `Cc1nc(C(=O)N(C)[C@H](C)c2ccccc2Cl)nc(NCCc2cn[nH]c2)c1C` [Compound 53, (R)-4-((2-(1H-pyrazol-4-yl)ethyl)amino)-N-(1-(2-chlorophenyl)ethyl)-N,5,6-trimethylpyrimidine-2-carboxamide], the “AC1.4 Human” value amounted to 0.3335 µM and the pEC50 was 5.58.

In the case of `Cc1nc(C(=O)NCCS(=O)(=O)Cc2ccccc2)nc(NCCc2cn[nH]c2)c1C` [Compound 141, 4-((2-(1H-pyrazol-4-yl)ethyl)amino)-N-(2-(benzylsulfonyl)ethyl)-5,6-dimethylpyrimidine-2-carboxamide], the “AC1.4 Human” value was found to be 3.8305 µM and the pEC50 was 4.69.

`Cc1nc(C(=O)N2CCOCC2c2cccc(Cl)c2)nc(NCCc2cn[nH]c2)c1C` (stereo not shown) [Compound 12, (4-((2-(1H-pyrazol-4-yl)ethyl)amino)-5,6-dimethylpyrimidin-2-yl)(3-(3-chlorophenyl)morpholino)methanone]: the “AC1.4 Human” value was 0.048 µM and the pEC50 is 6.29.

On to `Cc1ccc(C(C)NC(=O)c2nc(C)c(C)c(NCCc3cn[nH]c3)n2)s1` (stereo not shown) [Compound 130, 4-((2-(1H-pyrazol-4-yl)ethyl)amino)-5,6-dimethyl-N-(1-(5-methylthiophen-2-yl)ethyl)pyrimidine-2-carboxamide], for which the “AC1.4 Human” value amounted to 3.2975 µM and the pEC50 was 4.39.

On to `Cc1nc(C(=O)N2CC(C)(c3ccccc3)C2)nc(NCCc2cn[nH]c2)c1C` [Compound 89, (4-((2-(1H-pyrazol-4-yl)ethyl)amino)-5,6-dimethylpyrimidin-2-yl)(3-methyl-3-phenylazetidin-1-yl)methanone], for which the “AC1.4 Human” value came to 4.9195 µM and the pEC50 was 4.43.

Regarding `CCCN(CCc1cn[nH]c1)c1nc(C(N)=O)nc(C)c1C` [Compound 106, 4-((2-(1H-pyrazol-4-yl)ethyl)(propyl)amino)-5,6-dimethylpyrimidine-2-carboxamide], the “AC1.4 Human” value came out at 1.7115 µM and the pEC50 is 4.49.

As for `Cc1nc(C(=O)N[C@H](C)c2ccsc2)nc(NCCc2cn[nH]c2)c1C` [Compound 35], the “AC1.4 Human” value was 0.231 µM and the pEC50 was 6.21.

Regarding `Cc1nc(C(=O)N2C[C@H](c3ccccc3)[C@@H](O)C2)nc(NCCc2cn[nH]c2)c1C` [Compound 42, (4-((2-(1H-pyraazol-4-yl)ethyl)amino)-5,6-dimethylpyrimidin-2-yl)((3R,4S)-3-hydroxy-4-phenylpyrrolidin-1-yl)methanone], the “AC1.4 Human” value turned out to be 0.265 µM and the pEC50 was 5.53.

`Cc1nc(C(=O)N[C@@H](C)c2ccccc2Cl)nc(NCCc2cn[nH]c2)c1C` [Compound 99, (S)-4-((2-(1H-pyrazol-4-yl)ethyl)amino)-N-(1-(2-chlorophenyl)ethyl)-5,6-dimethylpyrimidine-2-carboxamide]: the “AC1.4 Human” value was found to be 1.5915 µM and the negative-log EC50 (pEC50) was 4.70.

Regarding `Cc1nc(C(=O)N[C@H](C)c2ccccn2)nc(NCCc2cn[nH]c2)c1C` [Compound 47, (R)-4-((2-(1H-pyrazol-4-yl)ethyl)amino)-5,6-dimethyl-N-(1-(pyridin-2-yl)ethyl)pyrimidine-2-carboxamide], the “AC1.4 Human” value was 0.2915 µM and the pEC50 was 5.70.

For `Cc1nc(C(=O)N[C@H](C)c2cccc(F)c2)nc(NCCc2cn[nH]c2)c1C` [Compound 39, (R)-4-((2-(1H-pyrazol-4-yl)ethyl)amino)-N-(1-(3-fluorophenyl)ethyl)-5,6-dimethylpyrimidine-2-carboxamide], the “AC1.4 Human” value stood at 0.21 µM and the pEC50 is 5.82.

On to `Cc1nc(C(=O)Nc2cc(F)cc(F)c2)nc(NCCc2cn[nH]c2)c1C` [Compound 117, 4-((2-(1H-pyrazol-4-yl)ethyl)amino)-N-(3,5-difluorophenyl)-5,6-dimethylpyrimidine-2-carboxamide], for which the “AC1.4 Human” value stood at 2.2385 µM and the pEC50 was 4.32.

With `Cc1nc(C(=O)N2CCC[C@@H]2c2cccc(F)c2)nc(NCCc2cn[nH]c2)c1F` [Compound 150, (R)-(4-((2-(1H-pyrazol-4-yl)ethyl)amino)-5-fluoro-6-methylpyrimidin-2-yl)(2-(3-fluorophenyl)pyrrolidin-1-yl)methanone], the “AC1.4 Human” value worked out at 0.12 µM.

Turning to `Cc1nc(C(=O)NCC(O)C(F)(F)F)nc(NCCc2cn[nH]c2)c1C` (stereo not shown) [Compound 128, 4-((2-(1H-pyrazol-4-yl)ethyl)amino)-5,6-dimethyl-N-(3,3,3-trifluoro-2-hydroxypropyl)pyrimidine-2-carboxamide], the “AC1.4 Human” value worked out at 3.235 µM and the negative-log EC50 (pEC50) was 4.55.

As to `Cc1nc(C(=O)N2CC[C@H](c3ccccc3)C2)nc(NCCc2cn[nH]c2)c1C` [Compound 52, (R)-(4-((2-(1H-pyrazol-4-yl)ethyl)amino)-5,6-dimethylpyrimidin-2-yl)(3-phenylpyrrolidin-1-yl)methanone], the “AC1.4 Human” value stood at 0.3305 µM and the pEC50 was 5.75.

On to `Cc1nc(C(=O)N2CCC[C@@H]2c2ccccc2F)nc(NCCc2cn[nH]c2)c1C` [Compound 54, (R)-(4-((2-(1H-pyrazol-4-yl)ethyl)amino)-5,6-dimethylpyrimidin-2-yl)(2-(2-fluorophenyl)pyrrolidin-1-yl)methanone], for which the “AC1.4 Human” value amounted to 0.35 µM and the pEC50 is 5.63.

Regarding `Cc1nc(C(=O)NC(C)c2ccon2)nc(NCCc2cn[nH]c2)c1C` (stereo not shown) [Compound 90, 4-((2-(1H-pyrazol-4-yl)ethyl)amino)-N-(1-(isoxazol-3-yl)ethyl)-5,6-dimethylpyrimidine-2-carboxamide], the “AC1.4 Human” value was 1.17 µM and the pEC50 was 5.03.

For the molecule `Cc1nc(C(=O)N[C@H](C)c2ccncc2)nc(NCCc2cn[nH]c2)c1C` [Compound 95, (R)-4-((2-(1H-pyrazol-4-yl)ethyl)amino)-5,6-dimethyl-N-(1-(pyridin-4-yl)ethyl)pyrimidine-2-carboxamide], the “AC1.4 Human” value amounted to 1.2975 µM and the pEC50 was 4.96.

Consider `Cc1nc(C(=O)N[C@@H](C)c2cccc(F)n2)nc(NCCc2cn[nH]c2)c1C` [Compound 73, (S)-4-((2-(1H-pyrazol-4-yl)ethyl)amino)-N-(1-(6-fluoropyridin-2-yl)ethyl)-5,6-dimethylpyrimidine-2-carboxamide], for which the “AC1.4 Human” value is 0.6455 µM and the pEC50 is 5.49.

`Cc1nc(C(=O)N2CC(O)(C(F)(F)F)C2)nc(NCCc2cn[nH]c2)c1C` [Compound 48, (4-((2-(1H-pyrazol-4-yl)ethyl)amino)-5,6-dimethylpyrimidin-2-yl)(3-hydroxy-3-(trifluoromethyl)azetidin-1-yl)methanone]: the “AC1.4 Human” value was determined as 0.2925 µM and the pEC50 was 5.17.
